Reference: patent US8791249B2, “Nucleic acid encoding humanized c-kit antibody” (Amgen Inc., priority 2006, dated 2014)
“Also recorded” adds a separate entry of the source.

Key:
c-Kit = c-Kit (Homo sapiens, UniProt P10721); test: Cell based assays of c-Kit signaling (functional potency, agonism, internalization); set-up: endogenous in cells; host or cells: MO7e cells; cultured human mast cells derived from bone marrow CD34+ cells; primary human CD34+ CD117+ bone marrow cells; UT-7 cells; conditions: all cell based assays tested
From the text: These properties are potentially undesirable since the aim of a therapeutic strategy is to apoptotically deplete mast cells and precurors by blocking the survival SCF signal and to avoid mast cell activation that could lead to anaphylactoid reactions in vivo. When the mouse SR-1 CDR regions were inserted in the human IgG1 framework, affinity and functional potency were also maintained, but this background is less desirable due to the complement activation and cell mediated cytotoxicity often found with this isotype of antibody.
The aglycosylated IgG1 isotype was chosen to avoid effector function and cell killing through bystander effects. […] It also depletes mast cells in vivo as expected.

[1] = tested on: Cultured human mast cells derived from bone marrow CD34+ cells; test: Cultured human mast cell assays (survival, c-Kit phosphorylation, aggregation); assay type: cell-based
[2] = tested on: U-937 cells expressing Fcγ receptor I=CD64, Fcγ receptor II=CD32 and Fcγ receptor III=CD16; test: Non-specific FcR binding to U-937 cells; assay type: cell-based
From the text: (§1) In contrast, binding of SR-1 IgG1 and IgG4β isotypes was detected presumably to the high affinity FcγRI. […] Aglycosylated chimeric mouse/human IgG1 antibodies have been reported to […] (Hybridoma. 1991 April; 10(2):211-7) and so these desired activities of hSR-1 aIgG1 are not expected.

c-Kit dimer = test: Biacore binding to c-Kit dimer versus soluble monomer; set-up: species or system human
From the text: Activation of c-Kit upon binding by stem cell factor (SCF) leads to dimerization/oligomerization, autophosphorylation and receptor internalization, most likely through a clathrin-dependent pathway. The SR-1 monoclonal antibody binds the c-Kit dimer with 1000-fold higher affinity compared to the soluble c-Kit extra-cellular domain monomer as determined by Biacore.
Carbohydrates present on a glycoprotein can influence biological and functional properties. […] This is an important characteristic not predicted to be translated with certainty with the humanization and as the soluble c-Kit monomer is less likely to act as a sink for the antibody in vivo.

[3] = Effector function (CDC, ADCC); assay type: cell-based
From the text: as §1

[4] = Human dose projection (body surface area-based dose conversion); conditions: equivalent dosing regimen, preliminary estimation
Description: The minimal effective dose in the wound PD model of mast cell expansion is <0.3 mg/Kg administered once weekly for 2 weeks in monkeys. Based on a body surface area-based dose conversion, the minimal effective dose in human is projected to be <0.1 mg/Kg with an equivalent dosing regiment. However, this is a preliminary estimation as the PK and the pharmacodynamic relationship between the degree and duration of c-kit inhibition in human by hSR-1 aIgG1 and clinical endpoints are unknown at this time. A more accurate projection will be made when more pharmacokinetic and pharmacodynamic data are available.

[5] = tested on: human CD34+, CD 117+ (c-Kit) bone marrow cells; test: CD34+ bone marrow cell CFU assay (SCF/GM-CSF colony formation), human; assay type: cell-based
Description: (§2) The SR-1 monoclonal antibody was selected based on its equivalent functional potency at human and monkey c-Kit in the CD34+ bone marrow cell CFU assay (inhibition at 1.0 ug/mL), and its monkey PK.

[6] = In vivo tolerability in non-human primates; conditions: up to 30 mg/kg once weekly for 4 weeks or up to 150 mg/kg subcutaneously once weekly for 2 weeks
[7] = Preliminary PK study after single IV or SC administration
Description: A preliminary PK study was conducted to compare hSR-1 IgG2 and hSR-1 aIgG1 PK in male cynomolgus monkeys after a single IV or SC administration at 3 mg/kg.

c-Kit in MO7e cells = test: SCF-mediated c-Kit phosphorylation and internalization in MO7e cells; assay type: cell-based
[8] = tested on: basal lung and colon mast cells; test: Depletion of basal lung and colon mast cells in monkey; assay type: in vivo; conditions: day 14
Description: as §2
[…] […] For practical reasons, basal pulmonary mast cells were evaluated on day 28 at the time of necropsy and the termination of the study.

[9] = tested on: wound activated skin mast cells; test: Wound pharmacodynamic model of mast cell expansion in monkey; conditions: for Fold UT-7 IC50 (Ctrough) / Inhibition of activated skin mast cells: day 14
[10] = Exposure after repeated once-weekly dosing; assay type: in vivo, African green monkeys; conditions: preliminary exposure data
From the text: Based on preliminary exposure data of SR-1 and humanized antibodies in African green monkeys after repeated once-weekly dosing, humanized antibodies achieved higher exposures compared to SR-1. […] 1992; 35(3): 165-74.

[11] = IV, 3 mg/kg, male cynomolgus monkeys
[12] = SC, 3 mg/kg, male cynomolgus monkeys

Chain of c-Kit (P10721 26-976): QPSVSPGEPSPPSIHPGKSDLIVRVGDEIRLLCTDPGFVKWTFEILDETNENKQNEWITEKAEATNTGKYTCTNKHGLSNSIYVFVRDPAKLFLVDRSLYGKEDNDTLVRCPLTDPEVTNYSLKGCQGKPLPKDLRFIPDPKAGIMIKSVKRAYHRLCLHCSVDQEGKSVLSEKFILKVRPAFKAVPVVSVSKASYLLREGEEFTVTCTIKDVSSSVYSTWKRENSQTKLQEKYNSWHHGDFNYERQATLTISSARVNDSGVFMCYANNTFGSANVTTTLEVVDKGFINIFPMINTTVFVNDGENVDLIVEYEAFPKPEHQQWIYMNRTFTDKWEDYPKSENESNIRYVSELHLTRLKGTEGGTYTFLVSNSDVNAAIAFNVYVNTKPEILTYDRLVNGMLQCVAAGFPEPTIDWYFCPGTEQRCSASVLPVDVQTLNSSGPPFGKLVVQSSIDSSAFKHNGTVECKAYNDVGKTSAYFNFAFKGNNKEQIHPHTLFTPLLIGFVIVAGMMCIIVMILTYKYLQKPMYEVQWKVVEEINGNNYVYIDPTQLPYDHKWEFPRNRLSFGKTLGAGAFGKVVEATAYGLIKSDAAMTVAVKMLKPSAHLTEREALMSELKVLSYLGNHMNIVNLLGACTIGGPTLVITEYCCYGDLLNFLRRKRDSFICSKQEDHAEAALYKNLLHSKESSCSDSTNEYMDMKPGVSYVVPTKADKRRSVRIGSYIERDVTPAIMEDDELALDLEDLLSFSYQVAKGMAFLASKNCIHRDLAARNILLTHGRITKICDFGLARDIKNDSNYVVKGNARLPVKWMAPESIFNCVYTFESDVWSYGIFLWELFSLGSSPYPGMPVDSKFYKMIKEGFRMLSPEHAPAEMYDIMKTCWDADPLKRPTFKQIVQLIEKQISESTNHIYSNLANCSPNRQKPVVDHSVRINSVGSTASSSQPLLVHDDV
Chain of c-Kit dimer (P10721 26-509 limits assumed): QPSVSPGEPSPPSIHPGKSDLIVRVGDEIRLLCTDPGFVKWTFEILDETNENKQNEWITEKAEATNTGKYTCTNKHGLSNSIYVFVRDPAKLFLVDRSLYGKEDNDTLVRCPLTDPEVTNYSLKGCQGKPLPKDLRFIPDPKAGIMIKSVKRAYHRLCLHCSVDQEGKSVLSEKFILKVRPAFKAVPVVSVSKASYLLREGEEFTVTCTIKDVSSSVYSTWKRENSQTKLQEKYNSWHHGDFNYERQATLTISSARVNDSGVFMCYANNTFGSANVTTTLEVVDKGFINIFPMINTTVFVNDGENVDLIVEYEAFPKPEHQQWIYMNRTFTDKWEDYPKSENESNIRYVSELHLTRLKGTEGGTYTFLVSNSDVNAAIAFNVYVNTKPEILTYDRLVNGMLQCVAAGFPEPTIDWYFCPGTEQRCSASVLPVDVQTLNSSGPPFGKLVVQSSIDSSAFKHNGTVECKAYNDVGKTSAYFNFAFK

hSR-1 aIgG1: Humanized anti-c-Kit aglycosylated IgG1 antibody; kappa light chain SEQ ID NO: 2, heavy chain SEQ ID NO: 4
antagonism of SCF (c-Kit): highly potent neutral antagonist
agonism of c-Kit (c-Kit; proximal and distal read-outs): no agonism
homotypic mast cell aggregation / clustering [1]: no ability to mediate homotypic mast cell aggregation
inhibition of SCF-dependent mast cell survival [1]: inhibited
c-Kit receptor phosphorylation mediated by the antibody ([1]; FIG. 3): did not mediate
survival signal conferred to mast cells (agonist activity) ([1]; antibody alone): conferred no survival signal
non-specific FcR binding [2]: no detectable
binding to receptor dimer / membrane c-Kit versus monomer / soluble c-Kit (c-Kit dimer): higher affinity to the membrane c-Kit compared to soluble c-kit; also recorded: high affinity to the receptor dimer versus monomer
complement dependent cytotoxic cell death [3]: no complement dependent cytotoxic cell death
ADCC activity ([3]; predicted from lack of FcR binding): no ADCC activity
projected minimal effective dose in human [4]: < 0.1 mg/kg
survival relative to baseline [5]: inhibit survival below baseline
neutralization of the synergistic effect of SCF on GM-CSF derived colony formation ([5]; 1.0 ug/mL): neutralization
intrinsic agonistic survival activity ([5]; up to 10 ug/mL): no intrinsic agonistic survival activity
abnormalities on in vivo dosing [6]: No unexpected abnormalities
AUC0-tlast [7, 11]: 9710 µg·h/mL
C0 [7, 11]: 103 µg/mL
CL ([7]; IV, 3 mg/kg, calculated based on AUC0-tlast): ≦0.309 mL/hr/kg
AUC0-tlast [7, 12]: 7970 µg·h/mL
Cmax [7, 12]: 36.4 µg/mL
Tmax [7, 12]: 72 h
PK time profile ([7]; single IV or SC 3 mg/kg): non-linear PK
inhibition of SCF-mediated c-Kit phosphorylation and internalization (c-Kit in MO7e cells): potently inhibited
agonism in c-Kit receptor proximal phosphorylation read-out (c-Kit in MO7e cells; antibody alone): no evidence of agonism
Depletion of basal colon mast cells ([8]; 0.3 mg/kg once weekly): no efficacy; also recorded: No effect
Depletion of basal colon mast cells ([8]; 1.0 mg/kg once weekly): >65%
Depletion of basal colon mast cells ([8]; 3.0 mg/kg once weekly): >95%
Fold UT-7 IC50 (Ctrough) ([9]; 0.3 mg/kg once weekly): >200 fold
Fold UT-7 IC50 (Ctrough) ([9]; 1.0 mg/kg once weekly): >2000 fold
Inhibition of activated skin mast cells ([9]; 1.0 mg/kg once weekly): >95%
Fold UT-7 IC50 (Ctrough) ([9]; 3.0 mg/kg once weekly): >7000 fold
Inhibition of activated skin mast cells ([9]; 3.0 mg/kg once weekly): >95%
minimal effective dose in the wound PD model ([9]; once weekly for 2 weeks in monkeys): < 0.3 mg/kg
exposure compared within group [10]: equal best in group PK
